One series relates to RSV F protein. Format: in vivo. Conditions: Table 4; BALB/c mice, intramuscular, 1 ng vA375 replicon in LNP, days 0 and 21. (In general: A replicon is a self-replicating genome or part of one, used to study replication in cells.)
The nature of series [1]: Encapsulation efficiency of RNA replicons (Quant-iT RiboGreen). Format: physicochemical. The following applies: LNP 40% cationic lipid, 10% DSPC, 48% cholesterol, 2% PEG-DMG; RNA replicon. As to the method: Briefly, lipids were dissolved in ethanol (2m1), a RNA replicon was dissolved in buffer (2 ml, 100 mM sodium citrate, pH 6) and these were mixed with 2 ml of buffer followed by 1 hour of equilibration. The mixture was then dialized overnight against 1×PBS. The resulting product contained liposomes, with ˜70-95% encapsulation efficiency.
The percentage of encapsulated RNA and RNA concentration were determined by Quant-iT RiboGreen RNA reagent kit (Invitrogen), following manufacturer's instructions. The ribosomal RNA standard provided in the kit was used to generate a standard curve. LNPs were diluted 10× or 100× in 1× TE buffer (from kit) before addition of the dye. Separately, LNPs were diluted 10× or 100× in 1× TE buffer containing 0.5% Triton X before addition of the dye (to disrupt the LNPs and thus to assay total RNA). Thereafter an equal amount of dye was added to each solution and then ˜180 μL of each solution after dye addition was loaded in duplicate into a 96 well tissue culture plate. The fluorescence (Ex 485 nm, Em 528 nm) was read on a microplate reader. All LNP formulations were dosed in vivo based on the encapsulated amount of RNA.

A short description of series [2]: Characterization of LNP formulations: Z average particle diameter and polydispersity index. The following applies: LNP formulation. The format is physicochemical. The text has this: The lipid nanoparticles have a size of about 1 to about 2,500 nm, about 1 to about 1,500 nm, about 1 to about 1,000 nm, in a sub-embodiment about 50 to about 600 nm, in a sub-embodiment about 50 to about 400 nm, in a sub-embodiment about 50 to about 250 nm, and in a sub-embodiment about 50 to about 150 nm. Unless indicated otherwise, all sizes referred to herein are the average sizes (diameters) of the fully formed nanoparticle, as measured by dynamic light scattering on a Malvern Zetasizer. The nanoparticle sample is diluted in phosphate buffered saline (PBS) so that the count rate is approximately 200-400 kcts. The data is presented as a weighted average of the intensity measure.

In series [3] the test system is H1N1 influenza A strain, Ca107. As to the kind of experiment: Immunogenicity in ferret models (Influenza): microneutralization. The format is in vivo, ferrets. Conditions: IM. As to the method: For immunization in ferrets, a lipid working solution was freshly prepared by dissolving 22.5 mg of Example 1, 5.9 mg of DSPC, 13.9 mg of Cholesterol and 4.0 mg of PEG2000-conjugated DMPE (cat #880150P, Avanti Polar Lipids, Inc.) in 10 ml ethanol. A 10 mL working solution of RNA was also prepared at a concentration of 0.125 mg/ml in 100 mM citrate buffer (pH 6). The working lipid and RNA solutions were heated at 37° C. for 5 min before being loaded into two 10 cc luer-lok syringes. […] The outlet from the T mixer was also FEP tubing separately, 10 mL of citrate buffer (pH 6) was loaded in a third 10 cc syringe which was connected to a separate piece of tubing. All three syringes were loaded on a syringe pump and driven at 1.0 ml/min. The tubing outlets were positioned to collect the mixtures in a 20 mL glass vial which was gently stirred using a stirring bar. All glass vials were baked at 250° C. for 12 hours prior to experiment to completely inactivate any RNase contaminant. At the end of mixing, the stir bar was taken out and the ethanol/aqueous solution was allowed to equilibrate to room temperature for 1 hour. After incubation, the ethanol/aqueous solution was loaded into a syringe, and mixed with equal volume of 100 mM citrate buffer (pH 6) using the aforementioned Tee-junction process. Next, LNPs were concentrated to 20 mL and dialyzed against 10-15 volumes of 1× PBS using by tangential flow filtration before recovering the final product. The TFF system and hollow fiber filtration membranes were purchased from Spectrum Labs (Rancho Dominguez) and were used according to the manufacturer's guidelines. Polysulfone hollow fiber filtration membranes with a 100 kD pore size cutoff and 8 cm^2 surface area were used. For in vitro and in vivo experiments formulations were diluted to the required RNA concentration with 1×. PBS.
A total of seven experimental groups with six animals per group (42 animals) were used in this study; two vaccine doses of each RNA formulation (Groups 2-5), two groups vaccinated with a non-adjuvated (H1N1 subunit) or an adjuvated (MF59/H1N1 subunit) commercially available H1N1 influenza subunit vaccine (Groups 6 and 7) and a mock vaccinated group (Group 1). The RNA test vaccines were derived from a recombinant DNA plasmid (pDNA) carrying an alphavirus genome in which the structural genes were replaced with the HA gene from the H1N1 influenza A strain, Ca107. The RNA was then formulated in either cationic oil-in-water emulsion (CNE) or LNP for delivery to host cells via intramuscular (IM) injection. RNA concentrations for each formulation study group were 15 and 45 mcg for CNE and 5 and 15 mcg for LNP. The H1N1 subunit vaccines were used at a HA subunit protein concentration of 15 mcg. Non-vaccinated animals were mock vaccinated with a vehicle control for the RNA test vaccines. All test vaccines were administered by IM injection on Study Days (SD) 0 followed with a booster vaccination on Study Day 56 (8 weeks post 1st immunization).
Table 5 summarizes Influenza microneutralization data and table 6 the haemagultanin inhibition (HAI) titers. The LNP formulation tested generated immune responses with as little as 5 μg of self-amplifying RNA, as determined by increased HA-specific neutralization and HAI titers.

The structures appear in SMILES notation. Values joined by “and” are separate entries in the source; they are usually repeats but may differ in a detail not shown here. Equal values may be shown once.

On to `CCCCC/C=C\C/C=C\CCCCCCCCOc1ccc(OCCCCCCCC/C=C\C/C=C\CCCCC)c(COC(=O)CCCN(C)C)c1` [Example 1, 2,5-bis((9Z,12Z)-octadeca-9,12-dien-1-yloxy)benzyl 4-(dimethylamino)butanoate], for which the “Log10(IgG titer), 1 ng RNA (RSV-F), 2 weeks post 2nd immunization” value in the series with RSV F protein amounted to 4.43. Also, the “Encapsulation efficiency (RNA %)” value in series [1] stood at 96.6%. Also, the “Zav (nm)” value in series [2] (Z average particle diameter) turned out to be 135.3 nm. The polydispersity in series [2] (polydispersity index) was 0.11. Further, the Influenza microneutralization titer is 20 (2×) and 80 and 40 (2×) and 10 in series [3] (5 mcg RNA, 4wp1, per animal); 640 (2×) and >20480 (3×) and 320 in series [3] (5 mcg RNA, 4wp2, per animal); 20 (2×) and 40 (2×) and 10 and <10 in series [3] (5 mcg RNA, 8wp1, per animal); under 10 in series [3] (5 mcg RNA, Pre-bleed, per animal); 160 (2×) and 320 and 80 (2×) and 40 in series [3] (15 mcg RNA, 4wp1, per animal); 640 (4×) and >20480 (2×) in series [3] (15 mcg RNA, 4wp2, per animal). The Influenza microneutralization titer was 40 (3×) and 80 (2×) and 20 in series [3] (15 mcg RNA, 8wp1, per animal); under 10 in series [3] (15 mcg RNA, Pre-bleed, per animal).

Values taken from US10844002B2, “Lipids and lipid compositions for the delivery of active agents” (priority 2014, dated 2020).
